In US7842856B2, “Herbicide resistance gene, compositions and methods” (The Board of Trustees of the University of Illinois, priority 2005, dated 2010):

Columns and labels:
[1] = tested on: A. tuberculatus R (PPO inhibitor-resistant) parent; assay: Herbicide dose-response on whole plants, R parent; assay type: in vivo, Amaranthus tuberculatus (waterhemp); settings: for GR50 (growth reduction by 50%) R: R line
[2] = tested on: A. tuberculatus F2 and backcross lines; assay: Inheritance of resistance: R or S response of F2 and backcross lines to lactofen; assay type: in vivo, Amaranthus tuberculatus
[3] = male F1(R) x female F1(R), lactofen 110 g ai ha^−1 plus 1% COC, 15 days after treatment, N 400
[4] = male F1(R) x female R, lactofen 110 g ai ha^−1, 15 days, N 200
[5] = male F1(R) x female S, lactofen 110 g ai ha^−1, 15 days, N 200
[6] = male F1(S) x female F1(S), lactofen 110 g ai ha^−1, 15 days, N 400
[7] = male F1(S) x female R, lactofen 110 g ai ha^−1, 15 days, N 200
[8] = male F1(S) x female S, lactofen 110 g ai ha^−1, 15 days, N 200

| Structure (SMILES) | GR50 (growth reduction by 50%) R ([1]; 10 DAT) [g ai ha^−1] | GR50 (growth reduction by 50%) R ([1]; 15 DAT, dry weight vs control, plus 1% COC) [g ai ha^−1] | fold higher doses survived compared with S plants ([1]; lines homozygous for resistance vs S plants (FIG. 2; Table 2)) [fold] | Observed numbers R [2, 3] | Observed numbers S [2, 3] | Observed numbers R [2, 4] | Observed numbers S [2, 4] | Observed numbers R [2, 5] | Observed numbers S [2, 5] | Observed numbers R [2, 6] | Observed numbers S [2, 6] | Observed numbers R [2, 7] | Observed numbers S [2, 7] | Observed numbers R [2, 8] | Observed numbers S [2, 8] |
| --- | --- | --- | --- | --- | --- | --- | --- | --- | --- | --- | --- | --- | --- | --- | --- |
| O=C(O)c1cc(Oc2ccc(C(F)(F)F)cc2Cl)ccc1[N+](=O)[O-] [Acifluorfen, 5-{2-chloro-4-(trifluoromethyl)phenoxy}-2-nitrobezoic acid] | 5.8 | – | – | – | – | – | – | – | – | – | – | – | – | – | – |
| CCOC(=O)C(C)OC(=O)c1cc(Oc2ccc(C(F)(F)F)cc2Cl)ccc1[N+](=O)[O-] (racemic) [Lactofen, (±)-2-ethoxy-1-methyl-2-oxoethyl 5-{2-chloro-4-(trifluoromethyl)phenoxy}-2-nitrobenzoate] | 2.9 | 21 | 53 | 297 | 103 | 200 | 0 | 98 | 102 | 304 | 96 | 200 | 0 | 109 | 91 |
